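Where inhibition never reached the appropriate level, the endpoint shown equals the highest concentration tested. Otherwise, values were interpolated linearly from a five-concentration, 48-hour dose response in 96-well plates. GI50: concentration for 50% inhibition of growth. TGI: concentration producing complete growth inhibition.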 A value given as a limit tells only on which side of the number the result lay.

Holding throughout (test): NCI anticancer screen, dose series, 48 h
Test [1] concerns EKVX NSCLC.
Test [2] has as its system SK-OV-3 ovarian.
The subject of test [3] is SW-620 colon.
Test [4] relates to SK-MEL-5 melanoma.
In test [5] the test system is SK-MEL-28 melanoma.
Test [6] has as its system HT29 colon.
For test [7], the system named is MALME-3M melanoma.
Test [8] has as its system MDA-MB-435.
For test [9], the system named is NCI-H460 lung.
Test [10] deals with HOP-92 NSCLC.

As to `COC(=O)[C@@H](C)C[C@H](Cc1ccccc1)NC(=O)c1csc([C@@H](C[C@H](C(C)C)N(C)C(=O)[C@@H](NC(=O)CN(C)C)C2CC2)OC(C)=O)n1`, the GI50 in test [1] is 0.208 µM; in test [2], 0.434 µM; in test [3] it was 0.0137 µM; in test [4] it was 0.0122 µM; in test [5], 10.2 µM; in [6], 0.013 µM. For the same molecule, the GI50 is 0.0365 µM in [7], 0.00192 µM in test [8] and 0.0291 µM in test [9]. Also, the TGI in [1] was over 16.5 µM; in test [2] it was over 16.5 µM; in [3], over 16.5 µM; in test [4], 0.434 µM; in [5], over 16.5 µM; in test [7], over 16.5 µM. Further, the TGI was under 0.0153 µM in [8] and over 16.5 µM in [9].
As to `Clc1cc(-c2csc(Cl)c2)cs1`, the TGI in test [1], in [3], in test [4], in [5], in test [6] and in test [10] was over 100 µM each time. Besides, the TGI in test [8] and in [9] was over 100 µM throughout.
For the molecule `COC(=O)C([O][Ge]([CH3])([CH3])[CH3])c1ccccc1` (stereo not given), the GI50 in test [1], in test [2], in [3], in test [4], in test [5] and in test [6] was over 100 µM each time. The GI50 in test [10], in [7] and in test [9] was over 100 µM each time. In addition, the TGI in [1], in [2], in [3], in [4], in test [5] and in test [6] was over 100 µM each time. Also, the TGI in [10], in test [7] and in test [9] was over 100 µM in each case.
On to `O=C1/C(=C/c2ccc(Cl)cc2)COc2ccc(Br)cc21`, for which the TGI in [1], in test [2], in test [3], in [4], in test [5] and in test [6] was over 100 µM each time. For the same molecule, the TGI in test [10], in test [7] and in [9] was over 100 µM throughout.
In the case of `Cc1cccc(Cc2cnc(NC(=O)/C=C/c3ccco3)s2)c1`, the GI50 was 0.0581 µM in test [1]; 0.0465 µM in test [2]; 0.0385 µM in test [3]; 0.0354 µM in test [4]; over 100 µM in test [5]; 0.0373 µM in test [6]. In addition, the results for the GI50 in test [10], in [7] and in test [9] were 8.5 µM, 0.0484 µM and 0.0359 µM, respectively. Besides, the TGI in test [1] was over 100 µM; in test [2], over 100 µM; in test [3], over 100 µM; in test [4] it was 3.36 µM; in test [5] it was over 100 µM; in test [6], over 100 µM. For the same molecule, the TGI in test [10], in [7] and in [9] was over 100 µM throughout.
With `COc1ccc(C(=O)C(CN(C)C)c2ccccc2)cc1` (stereo not given), the GI50 in [1] was 14.1 µM; in test [2], 27.7 µM; in test [3], 0.496 µM; in [4] it was 4.22 µM; in test [5], 1.83 µM; in test [6], 3.8 µM. In addition, the GI50 is 3.3 µM in test [7], 2.83 µM in test [8] and 6.13 µM in test [9]. Further, the TGI in test [1] was 34.1 µM; in [2], 77.2 µM; in test [3], 1.57 µM; in [4], 15.4 µM; in [5] it was 3.38 µM; in test [6], 21.4 µM. For the same molecule, the results for the TGI in test [7], in [8] and in [9] were 13.6 µM, 11.4 µM and 19.2 µM, respectively.
As for `CC(C)S(=O)(=O)ON1C(=O)c2ccc([N+](=O)[O-])cc2C1=O`, the TGI in test [1], in [2], in test [3], in test [4], in test [5] and in test [6] was over 100 µM in each case. The TGI in [10], in [7] and in test [9] was over 100 µM throughout.
In the case of `N#CSc1cc(-c2nc3ccccc3o2)ccc1N`, the GI50 in test [1] was 5 µM; in test [2], 76.5 µM; in [3], 25.7 µM; in test [4], 11.1 µM; in [5] it was 29.6 µM; in [6] it was 37.7 µM. For the same molecule, the GI50 in test [10] was 22.4 µM; in [8] it was 24 µM; in [9], 24 µM. Moreover, the TGI is 37.2 µM in test [1]; over 100 µM in test [2]; over 86.2 µM in [3]; 29.2 µM in test [4]; over 100 µM in test [5]; over 100 µM in test [6]. The figures for the TGI in test [10], in test [8] and in test [9] were 64.2 µM, 64.1 µM and over 100 µM, respectively.
As to `CC(C)N(C(=O)C12C3C4C5C3C1(C(=O)N(C(C)C)C(C)C)C5C42)C(C)C` (stereo not given), the TGI in test [1] is over 100 µM; in [2] it was over 100 µM; in test [3], over 88.2 µM; in test [4] it was over 100 µM; in test [5], over 100 µM; in [6], over 100 µM. Besides, the TGI in test [10], in test [7] and in test [9] was over 100 µM each time.
In the case of `CCC[CH2][Sn]1([CH2]CCC)[O]N=Cc2ccccc2[O]1`, the GI50 was 1.11 µM in [1]; 2.96 µM in [2]; 0.241 µM in [3]; 1.46 µM in test [4]; 0.58 µM in [5]; 1.75 µM in [6]. In addition, the GI50 was 1.22 µM in test [10], 0.439 µM in test [7] and 1.44 µM in test [9]. The TGI in [1] amounted to 2.39 µM; in test [2], 6.15 µM; in test [3], 1.11 µM; in [4], 2.83 µM; in test [5] it was 1.87 µM; in test [6], 3.36 µM. The TGI in test [10] was found to be 2.49 µM; in [7], 0.978 µM; in test [9] it was 2.76 µM.
As to `CCN(CC)Cc1cc(Nc2c3ccc(Cl)cc3nc3c(C)cccc23)ccc1O`, the GI50 in [1] was 1.86 µM; in test [2], 1.78 µM; in [3], 1.06 µM; in test [4], 1.76 µM; in test [5] it was 1.78 µM; in [6] it was 0.888 µM. Besides, the GI50 was 1.65 µM in test [7], 1.75 µM in test [8] and 1.16 µM in test [9]. Besides, the TGI turned out to be 3.98 µM in test [1]; 3.33 µM in [2]; 2.53 µM in test [3]; 3.15 µM in test [4]; 3.22 µM in [5]; 2.42 µM in test [6]. Moreover, the figures for the TGI in test [7], in test [8] and in [9] were 3.13 µM, 3.14 µM and 2.7 µM, respectively.
For the molecule `Cc1c(-c2ccnc(N)n2)c2c(n1-c1ccccc1)C(=O)c1ccccc1C2=O`, the GI50 in test [1] was 21.5 µM; in test [2] it was 39.3 µM; in test [3], 38.9 µM; in test [4] it was 16.2 µM; in [5], 41.8 µM; in test [10], over 100 µM. Moreover, the GI50 was 25.2 µM in [8] and 17.6 µM in test [9]. Besides, the TGI in test [1] is 63.7 µM; in [2] it was over 100 µM; in test [3] it was over 100 µM; in [4], 34.1 µM; in [5] it was over 100 µM; in test [10], over 100 µM. The results for the TGI in test [8] and in test [9] were 67.3 µM and 60 µM, respectively.
As for `C=CCN1C(=O)C/C(=C2/CCC(=O)N2CC=C)C1=O`, the TGI in [1], in test [2], in test [3], in test [4], in test [5] and in [6] was over 100 µM in each case. Also, the TGI in [10], in test [7] and in test [9] was over 100 µM throughout.
With `Nc1ccc(Sc2ccc3c4c2cccc4c(=O)n2c4ccccc4nc32)cc1`, the GI50 in test [2] was 5.63 µM; in [3] it was 5.16 µM; in test [4] it was 2.92 µM; in [5], 12.8 µM; in test [6] it was 8.55 µM; in test [7] it was 3.12 µM. For the same molecule, the GI50 in [8] is 12.6 µM; in test [9], 1.9 µM. The TGI in test [2] is 37.2 µM; in test [3], over 100 µM; in test [4] it was 13.9 µM; in test [5] it was 35.3 µM; in test [6], 73.2 µM; in test [7], 16.9 µM. For the same molecule, the TGI came to 82.2 µM in [8] and 14.3 µM in [9].
Take `C/C(CC(=O)Nc1cc(Cl)c(Cl)cc1Cl)=N\NS(=O)(=O)c1ccc(C)cc1`: the TGI in [1], in test [2], in [3], in test [4], in test [5] and in test [6] was over 100 µM in each case. In addition, the TGI in [10] is 59 µM; in [7] it was over 100 µM; in test [9], over 100 µM.
In the case of `COc1ccc(OC)c(/C=C/C(=O)c2ccc(SC)cc2)c1`, the GI50 is 16.8 µM in test [1]; 8.07 µM in test [2]; 3.45 µM in test [3]; 3.31 µM in test [4]; 10.1 µM in test [5]; 3.89 µM in test [6]. The GI50 in test [10] was 6 µM; in test [8] it was 2.09 µM; in test [9], 3.82 µM. Besides, the TGI is 39.4 µM in test [1]; over 100 µM in test [2]; over 100 µM in test [3]; 14 µM in test [4]; 51.1 µM in [5]; over 100 µM in test [6]. The TGI was over 100 µM in [10], 8.91 µM in [8] and 17.6 µM in test [9].
Regarding `NC(=O)COc1ccc(Br)cc1Br`, the TGI in [1], in test [2], in [3], in test [4], in test [5] and in test [6] was over 100 µM each time. The TGI in test [10], in [7] and in test [9] was over 100 µM throughout.
Turning to `Cn1cc(C2=C(c3cccc(Cl)c3)C(=O)NC2=O)c2ccccc21`, the GI50 in test [2] is over 25 µM; in test [3], over 25 µM; in test [4] it was 10.7 µM; in [5], over 17.5 µM; in test [6], 10.3 µM; in [7], over 25 µM. Moreover, the GI50 in test [8] is 12.6 µM; in [9] it was over 22.7 µM. The TGI in test [2], in test [3], in test [4], in test [5], in test [6] and in test [7] was over 25 µM in each case. For the same molecule, the TGI in test [8] and in test [9] was over 25 µM throughout.
For `CC1(C)CC(=O)C=C(NC(=O)c2ccccc2)C1`, the TGI in [1], in [2], in [3], in test [4], in [5] and in test [6] was over 100 µM throughout. Besides, the TGI in test [10], in test [7] and in test [9] was over 100 µM in each case.
In the case of `BrCC[N+]12CCCN1CCC2`, the TGI was 38 µM in test [1]; over 93.3 µM in test [2]; 7.39 µM in test [3]; 34.3 µM in test [4]; 26.5 µM in [5]; 38.2 µM in test [6]. For the same molecule, the figures for the TGI in test [10], in test [7] and in test [9] were 13.7 µM, 5.2 µM and 48.9 µM, respectively.
Take `CN(C)/C=C/C(=O)c1cccc(C(=O)/C=C/N(C)C)n1`: the TGI in test [1], in test [2], in [3], in test [4], in test [5] and in [6] was over 100 µM in each case. In addition, the TGI in test [10], in test [7] and in test [9] was over 100 µM in each case.

(Values after PubChem BioAssay (NCI).)
